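Assay format: 96-well plates, 48-hour exposure. Here, GI50 denotes the concentration required for 50% inhibition of growth.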 The source made the active and inactive calls. No stated cut-off is given here; in the data, active = GI50 up to about 1.1 µM and inactive = higher. Non-standard residues stand in square brackets, D forms with d. Residues, ends and D or L forms follow the SMILES beside them. Ava = NCCCCC(=O)O; Mpa = O=C(O)CCS
Legend:
Experiment in all cases: growth of human tumour cells (NCI), 48 h
T47D = system: T47D
OVCAR-8 = system: OVCAR-8
NCI-H460 = system: NCI-H460
TK-10 = system: TK-10
MCF7 = system: MCF7
COLO 205 = system: COLO 205
MDA-MB-231 = system: MDA-MB-231
NCI-H522 = system: NCI-H522
HCT-116 = system: HCT-116
KM12 = system: KM12
Hs-578T = system: Hs-578T
M14 = system: M14
HT-29 = system: HT-29
CCRF-CEM = system: CCRF-CEM
MDA-MB-435 = system: MDA-MB-435
LOX IMVI = system: LOX IMVI
Malme-3M = system: Malme-3M
BT-549 = system: BT-549
DU-145 = system: DU-145
MDA-N = system: MDA-N

Measured: GI50

COc1cc(O)cc2oc(-c3ccc(O)cc3)cc(=O)c12
inactive: T47D 50.4 µM | OVCAR-8 34.4 µM | NCI-H460 67.5 µM | TK-10 > 100 µM | MCF7 > 100 µM | COLO 205 > 100 µM | MDA-MB-231 > 100 µM | NCI-H522 22.2 µM | HCT-116 44.4 µM | KM12 > 100 µM | Hs-578T 57 µM | M14 > 100 µM | HT-29 > 100 µM | CCRF-CEM > 100 µM | MDA-MB-435 > 100 µM | LOX IMVI > 100 µM | Malme-3M 76.6 µM | BT-549 47.1 µM | DU-145 > 100 µM | MDA-N > 100 µM

CCOC(=O)NC(NNc1ccc([N+](=O)[O-])cc1[N+](=O)[O-])(C(F)(F)F)C(F)(F)F
inactive: T47D 35.1 µM | OVCAR-8 30.8 µM | NCI-H460 27.5 µM | TK-10 30.7 µM | MCF7 62.5 µM | COLO 205 16.1 µM | MDA-MB-231 15.8 µM | NCI-H522 30.5 µM | HCT-116 32.1 µM | KM12 29.4 µM | Hs-578T 34.4 µM | M14 65.2 µM | HT-29 32.3 µM | CCRF-CEM 20.6 µM | MDA-MB-435 42.6 µM | LOX IMVI 60.1 µM | Malme-3M 53.3 µM | BT-549 25.5 µM | DU-145 40.3 µM | MDA-N 40.7 µM

O=C(c1ccccc1Br)C(F)(F)F
inactive: T47D 48.5 µM | OVCAR-8 > 100 µM | NCI-H460 > 100 µM | TK-10 > 100 µM | MCF7 > 100 µM | COLO 205 88.9 µM | MDA-MB-231 > 100 µM | NCI-H522 > 100 µM | HCT-116 > 100 µM | KM12 > 100 µM | Hs-578T > 100 µM | M14 > 100 µM | HT-29 > 100 µM | CCRF-CEM > 100 µM | MDA-MB-435 > 100 µM | LOX IMVI > 100 µM | Malme-3M > 100 µM | BT-549 > 100 µM | DU-145 > 100 µM | MDA-N > 100 µM

COC(=O)C(Cc1c[nH]c2ccccc12)NP(=O)(O)OCC1OC(n2ccc(N)nc2=O)C(O)C1O (stereo not given)
inactive: T47D > 100 µM | OVCAR-8 > 100 µM | NCI-H460 > 100 µM | TK-10 > 100 µM | MCF7 > 100 µM | COLO 205 > 100 µM | MDA-MB-231 > 100 µM | NCI-H522 > 100 µM | HCT-116 > 100 µM | KM12 > 100 µM | Hs-578T > 100 µM | M14 > 100 µM | HT-29 > 100 µM | CCRF-CEM 88.3 µM | MDA-MB-435 > 100 µM | LOX IMVI > 100 µM | Malme-3M > 100 µM | BT-549 > 100 µM | DU-145 > 100 µM | MDA-N > 100 µM

O=C(NNC(=O)c1ccc(Cl)cc1NC(=O)C12CC3CC(CC(C3)C1)C2)c1ccc(Cl)cc1
inactive: T47D 27.9 µM | OVCAR-8 32.7 µM | NCI-H460 23.2 µM | TK-10 20.1 µM | MCF7 27.9 µM | COLO 205 14.5 µM | MDA-MB-231 22 µM | NCI-H522 14.7 µM | HCT-116 20.3 µM | KM12 20.3 µM | Hs-578T 21.5 µM | M14 21.2 µM | HT-29 28.2 µM | CCRF-CEM 23.4 µM | MDA-MB-435 18.6 µM | LOX IMVI 18.5 µM | Malme-3M 11.4 µM | BT-549 41.7 µM | DU-145 22.8 µM | MDA-N 22 µM

COc1cc(O)c(/C=N/N=C(\N)NO)c(OC)c1
inactive: T47D > 10 µM | OVCAR-8 > 10 µM | NCI-H460 4.08 µM | TK-10 > 10 µM | MCF7 > 10 µM | COLO 205 > 10 µM | MDA-MB-231 > 10 µM | NCI-H522 > 10 µM | HCT-116 6.19 µM | KM12 8.18 µM | Hs-578T > 10 µM | M14 > 10 µM | HT-29 6.31 µM | CCRF-CEM 5.57 µM | MDA-MB-435 > 10 µM | LOX IMVI 7.6 µM | Malme-3M > 10 µM | BT-549 > 10 µM | DU-145 6.24 µM | MDA-N > 10 µM

c1ccc(NN/N=N/c2ccc(-c3nc4ccccc4[nH]3)cc2)cc1
inactive: T47D 8.17 µM | OVCAR-8 36 µM | NCI-H460 27 µM | TK-10 64.4 µM | MCF7 15.3 µM | COLO 205 23.1 µM | MDA-MB-231 72.8 µM | NCI-H522 24.7 µM | HCT-116 28 µM | KM12 19.5 µM | Hs-578T 29.1 µM | M14 10.6 µM | HT-29 25 µM | CCRF-CEM 20.7 µM | MDA-MB-435 19.4 µM | LOX IMVI 15.2 µM | Malme-3M 28.7 µM | BT-549 29.4 µM | DU-145 42.7 µM | MDA-N 29.9 µM

O=C1c2cc(Cl)ccc2-n2cnnc2C2CSCN12 (stereo not given)
inactive: T47D > 100 µM | OVCAR-8 > 100 µM | NCI-H460 > 100 µM | TK-10 > 100 µM | MCF7 > 100 µM | COLO 205 > 100 µM | MDA-MB-231 > 100 µM | NCI-H522 > 100 µM | HCT-116 > 100 µM | KM12 > 100 µM | Hs-578T > 100 µM | M14 > 100 µM | HT-29 > 100 µM | CCRF-CEM > 100 µM | MDA-MB-435 > 100 µM | LOX IMVI > 100 µM | Malme-3M > 100 µM | BT-549 > 100 µM | DU-145 > 100 µM | MDA-N > 100 µM

Cc1ccc(Nc2nc3ccccc3nc2NS(=O)(=O)c2ccc(N)cc2)cc1
inactive: T47D 44 µM | OVCAR-8 81.8 µM | NCI-H460 4.89 µM | TK-10 45.9 µM | MCF7 45.2 µM | COLO 205 45.8 µM | MDA-MB-231 > 100 µM | NCI-H522 25.2 µM | HCT-116 37.3 µM | KM12 23.5 µM | Hs-578T 65.5 µM | M14 57.7 µM | HT-29 68.4 µM | CCRF-CEM 18.4 µM | MDA-MB-435 30.7 µM | LOX IMVI 70.3 µM | Malme-3M 91.2 µM | BT-549 5.35 µM | DU-145 97.9 µM | MDA-N 41.4 µM

CC(NC(=O)CCS)C(=O)NC(C)C(=O)NC(Cc1c[nH]c2ccccc12)C(=O)NC(Cc1c[nH]cn1)C(=O)NC(CO)C(=O)NC(Cc1c[nH]c2ccccc12)C(=O)NCCCCC(=O)NC(C)C(=O)NC(CCC(N)=O)C(=O)NC(CCCCN)C(=O)NC(C)C(=O)NC(CCCNC(=N)N)C(=O)NC(CCCCN)C(N)=O (stereo not given) ([Mpa]AAWHSW[Ava]AQKARK-NH2; configuration not given here)
inactive: T47D 23.9 µM | OVCAR-8 90.2 µM | NCI-H460 37.2 µM | TK-10 > 100 µM | MCF7 > 100 µM | COLO 205 43.5 µM | MDA-MB-231 > 100 µM | NCI-H522 > 100 µM | HCT-116 > 100 µM | KM12 26.2 µM | Hs-578T > 100 µM | M14 > 100 µM | HT-29 > 100 µM | CCRF-CEM 79.4 µM | MDA-MB-435 45.9 µM | LOX IMVI > 100 µM | Malme-3M 19 µM | BT-549 > 100 µM | DU-145 87.9 µM | MDA-N 54.2 µM
